US5138069A (E. I. Du Pont de Nemours and Company, priority 1988, dated 1992)
Where two headings read alike, the source gives them in different places.

Legend:
AII receptor = assay: Angiotensin II receptor binding (displacement of 3H-AII); settings: read-out: Angiotensin II Receptor Binding IC50, rat adrenal cortical microsomes, 2 nM 3H-AII, 1 hour, room temperature
Experimental: The assay was carried out according to the method described by [Glossmann et al., J. Biol. Chem., 249, 825 (1974)], but with some modifications. The reaction mixture contained rat adrenal cortical microsomes (source of AII receptor) in Tris buffer and 2 nM of ^3 H-AII with or without potential AII antagonist. This mixture was incubated for 1 hour at room temperature and the reaction was subsequently terminated by rapid filtration and rinsing through glass micro-fibre filter. Receptor-bound ^3 H-AII trapped in filter was quantitated by scintillation counting.
Compounds listed in Table 26 were tested in the same manner as described for Table 25, except that in the test for antihypertensive effects in renal hypertensive rats, the compounds were administered orally at 30 mg/kg and intravenously at 3 mg/kg.

Renal Hypertensive Rats = assay: Antihypertensive effects in renal hypertensive rats; assay type: in vivo; settings: Rattus norvegicus; for minimal effective dose at 10 mg/kg / minimal effective dose at 100 mg/kg: Table 25; for minimal effective dose at 10 mg/kg / minimal effective dose at 3 mg/kg: intravenous; for minimal effective dose at 10 mg/kg: 10 mg/kg or less; for minimal effective dose at 100 mg/kg / minimal effective dose at 30 mg/kg: oral; for minimal effective dose at 100 mg/kg: 100 mg/kg or less; for minimal effective dose at 3 mg/kg / minimal effective dose at 30 mg/kg: Table 26
In short: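 Renal hypertensive rats (renin-driven AII elevation) dosed orally at 100 mg/kg and/or i.v. via jugular cannula at 10 mg/kg; a second set used 30 mg/kg oral and 3 mg/kg i.v. Arterial pressure recorded continuously via carotid cannula and compared with pretreatment levels.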

Row | SMILES | IC50 (AII receptor; Table 25) | IC50 (AII receptor; Table 26) | minimal effective dose at 10 mg/kg (Renal Hypertensive Rats) | minimal effective dose at 100 mg/kg (Renal Hypertensive Rats) | minimal effective dose at 3 mg/kg (Renal Hypertensive Rats) | minimal effective dose at 30 mg/kg (Renal Hypertensive Rats)
1 | CCCCc1nc(CO)c(Cl)n1Cc1ccc(-c2ccccc2C(=O)O)cc1 [Example 95] | 1200 nM | – | < 10 mg/kg | > 100 mg/kg | – | –
2 | CCCCc1ncc(CO)n1Cc1ccc(-c2ccccc2C(=O)O)cc1 [Example 97] | 270 nM | – | < 10 mg/kg | > 100 mg/kg | – | –
3 | CCCCc1nc(Cl)c(COC(C)C)n1Cc1ccc(-c2ccccc2C(=O)O)cc1 [Example 99] | 90 nM | – | < 10 mg/kg | < 100 mg/kg | – | –
4 | CCCCc1nc(Br)c(CO)n1Cc1ccc(-c2ccccc2C(=O)O)cc1 [Example 100] | 90 nM | – | < 10 mg/kg | < 100 mg/kg | – | –
5 | CCCCc1nc(I)c(CO)n1Cc1ccc(-c2ccccc2C(=O)O)cc1 [Example 102] | 61 nM | – | < 10 mg/kg | < 100 mg/kg | – | –
6 | CCCCc1nc(CO)c(I)n1Cc1ccc(-c2ccccc2C(=O)O)cc1 [Example 105] | 680 nM | – | < 10 mg/kg | < 100 mg/kg | – | –
7 | CCCCc1nc(Cl)c(CO)n1Cc1ccc(-c2cccc(C)c2C(=O)O)cc1 [Example 106] | 1900 nM | – | < 10 mg/kg | < 100 mg/kg | – | –
8 | CCCc1nc(Cl)c(CO)n1Cc1ccc(-c2ccccc2C(=O)O)cc1 [Example 108] | 160 nM | – | < 10 mg/kg | < 100 mg/kg | – | –
9 | CCCCCc1nc(Cl)c(CO)n1Cc1ccc(-c2ccccc2C(=O)O)cc1 [Example 109] | 980 nM | – | < 10 mg/kg | < 100 mg/kg | – | –
10 | CCCc1nc(Cl)c(C=O)n1Cc1ccc(-c2ccccc2-c2nnn[nH]2)cc1 [Example 114, 2-Propyl-4-chloro-1-[(2'-(1H-tetrazol-5-yl)biphenyl-4-yl)methyl]imidazole-5-carboxaldehyde] | 50 nM | – | < 10 mg/kg | < 100 mg/kg | – | –
11 | CCCCc1nc(Cl)c(CC(=O)O)n1Cc1ccc(-c2ccccc2C(=O)O)cc1 [Example 115] | 430 nM | – | < 10 mg/kg | < 100 mg/kg | – | –
12 | CCCCc1nc(Cl)c(C(C)C(=O)O)n1Cc1ccc(-c2ccccc2C(=O)O)cc1 (centres unmarked) [Example 116] | 260 nM | – | < 10 mg/kg | < 100 mg/kg | – | –
13 | CCCCc1nc(CO)c([N+](=O)[O-])n1Cc1ccc(-c2ccccc2C(=O)O)cc1 [Example 117] | 890 nM | – | < 10 mg/kg | < 100 mg/kg | – | –
14 | CCCCc1nc(CO)c(Cl)n1Cc1ccc(-c2ccccc2-c2nn[nH]n2)cc1 [Example 118] | 89 nM | – | < 10 mg/kg | < 100 mg/kg | – | –
15 | CCCCSc1ncc(CO)n1Cc1ccc(-c2ccccc2C(=O)O)cc1 [Example 123] | 5600 nM | – | < 10 mg/kg | > 100 mg/kg | – | –
16 | CCCc1nc(C(F)(F)C(F)(F)C(F)(F)F)c(CO)n1Cc1ccc(-c2ccccc2C(=O)O)cc1 [Example 124G] | – | 74 nM | – | – | < 3 mg/kg | < 30 mg/kg
17 | CCCc1nc(C(F)(F)C(F)(F)C(F)(F)C(F)(F)F)c(CO)n1Cc1ccc(-c2ccccc2C(=O)O)cc1 [Example 124H] | – | 290 nM | – | – | < 3 mg/kg | < 30 mg/kg
18 | CCCc1nc(C(F)(F)C(F)(F)C(F)(F)C(F)(F)C(F)(F)C(F)(F)F)c(CO)n1Cc1ccc(-c2ccccc2C(=O)O)cc1 [Example 124I] | – | 2500 nM | – | – | < 3 mg/kg | > 30 mg/kg
19 | CCCc1nc(C(F)(F)C(F)(F)C(F)(F)F)c(CO)n1Cc1ccc(-c2ccccc2-c2nnn[nH]2)cc1 [Example 124K] | – | 13 nM | – | – | < 3 mg/kg | < 30 mg/kg
20 | O=C(O)c1ccccc1-c1ccc(Cn2c(CO)cnc2SCC2CC2)cc1 [Example 124] | 1800 nM | – | < 10 mg/kg | > 100 mg/kg | – | –
21 | CCCCc1nc(Cl)c(C(=O)OC)n1Cc1ccc(-c2ccccc2C(=O)O)cc1 [Example 126, methyl 1-[(2'-carboxybiphenyl-4-yl)methyl]-2-butyl-4-chloroimidazole-5-carboxylate] | 340 nM | – | < 10 mg/kg | < 100 mg/kg | – | –
22 | CCCCc1nc(Cl)c(C(N)=O)n1Cc1ccc(-c2ccccc2C(=O)O)cc1 [Example 127, 1-[(2'-carboxybiphenyl-4-yl)methyl]-2-butyl-4-chloroimidazole-5-carboxamide] | 150 nM | – | < 10 mg/kg | < 100 mg/kg | – | –
23 | CCCCc1ncc(C=O)n1Cc1ccc(-c2ccccc2C(=O)O)cc1 [Example 130] | 470 nM | – | < 10 mg/kg | < 100 mg/kg | – | –
24 | CCCCc1nc(Cl)c(C=O)n1Cc1ccc(-c2ccccc2-c2nnn[nH]2)cc1 [Example 132, 2-n-Butyl-4-chloro-1-[(2'-(1H-Tetrazol-5-yl)-biphenyl-4-yl)methyl]imidazole-5-carboxaldehyde] | 20 nM | – | < 10 mg/kg | < 100 mg/kg | – | –
25 | CCCCc1nc(C(F)(F)F)c(C=O)n1Cc1ccc(-c2ccccc2-c2nnn[nH]2)cc1 [Example 133] | 36 nM | – | < 10 mg/kg | < 100 mg/kg | – | –
26 | CCCCc1nc(Cl)c(C(=O)NC)n1Cc1ccc(-c2ccccc2C(=O)O)cc1 [Example 134] | 180 nM | – | < 10 mg/kg | < 100 mg/kg | – | –
27 | CCCCc1nc(Cl)c(C(=O)N(C)C)n1Cc1ccc(-c2ccccc2C(=O)O)cc1 [Example 135] | 1300 nM | – | < 10 mg/kg | < 100 mg/kg | – | –
28 | CCC=Cc1nc(C(F)(F)F)c(CO)n1Cc1ccc(-c2ccccc2C(=O)O)cc1 [Example 137] | 53 nM | – | < 10 mg/kg | < 100 mg/kg | – | –

Continued, in another order:

Row | IC50 (AII receptor; Table 25) | IC50 (AII receptor; Table 26) | SMILES | minimal effective dose at 10 mg/kg (Renal Hypertensive Rats) | minimal effective dose at 100 mg/kg (Renal Hypertensive Rats) | minimal effective dose at 3 mg/kg (Renal Hypertensive Rats) | minimal effective dose at 30 mg/kg (Renal Hypertensive Rats)
29 | – | 130 nM | CCCc1nc(C(F)(F)F)c(CO)n1Cc1ccc(-c2ccccc2C(=O)O)cc1 [Example 124A] | – | – | < 3 mg/kg | < 30 mg/kg
30 | – | 50 nM | CCCc1nc(C(F)(F)C(F)(F)F)c(CO)n1Cc1ccc(-c2ccccc2C(=O)O)cc1 [Example 124B] | – | – | < 3 mg/kg | < 30 mg/kg
31 | – | 6 nM | CCCc1nc(C(F)(F)F)c(CO)n1Cc1ccc(-c2ccccc2-c2nn[nH]n2)cc1 [Example 124D] | – | – | < 3 mg/kg | < 30 mg/kg
32 | – | 7 nM | CCCCc1nc(C(F)(F)C(F)(F)F)c(CO)n1Cc1ccc(-c2ccccc2-c2nn[nH]n2)cc1 [Example 124E] | – | – | < 3 mg/kg | < 30 mg/kg
33 | – | 680 nM | CCCc1nc(-c2c(F)c(F)c(F)c(F)c2F)c(CO)n1Cc1ccc(-c2ccccc2C(=O)O)cc1 [Example 124J] | – | – | < 3 mg/kg | < 30 mg/kg
34 | – | 390 nM | CCCc1nc(C(F)(F)F)c(C=O)n1Cc1ccc(-c2ccccc2C(=O)O)cc1 [Example 140A] | – | – | – | < 30 mg/kg
